Test results taken from patent publication US20220395003A1, “Methods for Use in Food Processing and Preservation” (priority 2019, published 2022).

Tests used:
[1] = tested on: microbial growth on the surface of beef carcasses; experiment: Microbiological analysis of beef carcass surface after treatment (Example 1)
Procedure: (§1) A 0.3% aqueous solution of chitosan formed as described above having 0.01% sodium sulfite and 0.1% acetic acid was poured into a commercial dry vapor steam cleaning unit and allowed to equilibrate for about 15 minutes. The steam was applied to a beef carcass by the method of […] as disclosed in U.S. Pat. No. 9,149,036 which is incorporated herein by reference in its entirety. For comparison, a beef carcass was sprayed with an aqueous solution of about 3% acetic acid by standard methods known in the art. Prior to applying the chitosan steam or the aqueous acetic acid solution, the beef carcasses were washed thoroughly with hot water. The beef carcasses were maintained at 4 degrees centigrade.

[2] = tested on: microbial growth on the surface of beef carcass; experiment: Microbiological analysis of low and high surface areas of beef carcass (Example 2)
Procedure: as §1, with “centigrade. Microbiological analysis was performed on the surface of the carcasses at pretreatment and at 1, 24, and 72 hours after treatment. […] The study in Example 1 was repeated, applying the previously-described 0.3% chitosan, acetic acid, and sodium sulfite solution on a low surface area and a high surface area of a beef carcass.” for “centigrade.”

CC(=O)O [Water wash + acetic acid, acetic acid]
microbial growth ([1]; Flank, 0 h (pretreatment), 4 degrees centigrade): 2.60 log colony forming units | microbial growth ([1]; Flank, 1 h after treatment): 2.10 log colony forming units | microbial growth ([1]; Flank, 24 h after treatment): 2.10 log colony forming units | microbial growth ([1]; Flank, 72 h after treatment): 2.00 log colony forming units | microbial growth ([1]; Loin, 0 h (pretreatment), 4 degrees centigrade): 3.70 log colony forming units | microbial growth ([1]; Loin, 1 h after treatment): 2.40 log colony forming units | microbial growth ([1]; Loin, 24 h after treatment): 1.80 log colony forming units | microbial growth ([1]; Loin, 72 h after treatment): 2.00 log colony forming units | microbial growth ([2]; High (A) surface, 1 h): 1.59 log colony forming units | microbial growth ([2]; High (A) surface, 48 h): 1.35 log colony forming units | microbial growth ([2]; High (A) surface, 168 h): 1.49 log colony forming units | microbial growth ([2]; High (B) surface, 1 h): 2.03 log colony forming units | microbial growth ([2]; High (B) surface, 48 h): 1.80 log colony forming units | microbial growth ([2]; High (B) surface, 168 h): 1.77 log colony forming units | microbial growth ([2]; High (C) surface, 1 h): 1.88 log colony forming units | microbial growth ([2]; High (C) surface, 48 h): 1.65 log colony forming units | microbial growth ([2]; High (C) surface, 168 h): 1.43 log colony forming units | microbial growth ([2]; Low (A) surface, 1 h): 1.53 log colony forming units | microbial growth ([2]; Low (A) surface, 48 h): 1.09 log colony forming units | microbial growth ([2]; Low (A) surface, 168 h): 0.00 log colony forming units | microbial growth ([2]; Low (B) surface, 1 h): 1.73 log colony forming units | microbial growth ([2]; Low (B) surface, 48 h): 1.57 log colony forming units | microbial growth ([2]; Low (B) surface, 168 h): 1.45 log colony forming units | microbial growth ([2]; Low (C) surface, 1 h): 0.43 log colony forming units | microbial growth ([2]; Low (C) surface, 48 h): 0.94 log colony forming units | microbial growth ([2]; Low (C) surface, 168 h): 1.35 log colony forming units
